Counter-ions that a name gives are not always drawn. Like-named read-outs stand apart in the source and are kept apart here.
Assays:
[1] = Transdermal flux test of topical patch formulations (Franz cell); type: in vitro ADME
From the text: Human cadaver skin was used and epidermal layers (stratum corneum and epidermis) were separated from the full-thickness skin as skin membrane. Samples were die-cut with an arch punch to a final diameter of about 2.0 cm^2. The release liner was removed and the drug delivery system was placed on top of the epidermis/stratum corneum with the drug adhesive layer facing the stratum corneum. Gentle pressure was applied to effect good contact between the adhesive layer and stratum corneum. The donor and receptor sides of the Franz cell were clamped together and the receptor solution containing 0.9% sodium chloride, 1% Tween 80 and 0.01% Gentamicin was added to the Franz cell. The cells were kept at 33° C. for the duration of the experiment. Samples of the receptor solution were taken at regular intervals and the active agent concentration was measured by HPLC. The removed receptor solution was replaced with fresh solution to maintain the sink conditions. The flux was calculated from the slope of cumulative amounts of the drug in the receiver compartment versus time plot.

[2] = orally administered fingolimod HCl; cited from earlier work
[3] = Transdermal flux test of fingolimod HCl gel and solutions (Franz cell); type: in vitro ADME, human; conditions: during the first 8 hours of the experiments
Experimental: Human cadaver skin was used and epidermal layers (stratum corneum and epidermis) were separated from the full-thickness skin as skin membrane and placed on top of the Franz cell. The donor compartment chamber and receptor sides of the Franz cell were clamped together. A receptor solution containing 0.9% sodium chloride was added to the cell. Solution samples or gel samples were inserted into the donor compartment chamber on top of the epidermis/stratum corneum. The cells were kept at a temperature of 33° C. during the entire experiment. Samples of the receptor solution were taken at regular intervals and the active agent concentration was measured by HPLC. The removed receptor solution was replaced with fresh solution to maintain the sink conditions. The flux was calculated from the slope of the cumulative amounts of the drug in the receiver compartment versus time.

[4] = Solubility of fingolimod in patch adhesive; type: physicochemical

CCCCCCCC/C=C\CCCCCCCC(=O)OCC(O)CO (centres unmarked) [GMO, Glyceryl monooleate]
effect on the fingolimod flux ([1]; excipient in fingolimod base patches in Duro-Tak 9301, human cadaver skin, FIG. 3): enhancement effect

CCCCCCCCCCCCOC(=O)C(C)O (centres unmarked) [LL, Lauryl Lactate]
effect on the fingolimod flux [1]: enhancement effect

CCCCCCCCc1ccc(CCC(N)(CO)CO)cc1 [fingolimod HCl, fingolimod hydrochloride]
peak to trough fluctuations, non-phosphorylated fingolimod [2]: ≤ 20% | peak to trough fluctuations, phosphorylated (active) form of fingolimod [2]: ≤ 45%

CCCCCCCCc1ccc(CCC(N)(CO)CO)cc1 [fingolimod, 2-amino-2-[2-(4-octylphenyl)ethyl]propane-1,3-diol]
detection of fingolimod in the receptor solutions [3]: not detected | solubility of fingolimod in adhesive ([4]; Duro-Tak 87-9301 adhesive): less than 1% | solubility of fingolimod in the adhesive ([4]; PIB adhesive): less than 1% | solubility of fingolimod in the adhesive ([4]; acrylate polymer adhesive Duro-Tak 900A): less than 1%
